Data published in paper PMC6127322, “Novel Imidazole and Methoxybenzylamine Growth Inhibitors Affecting Salmonella Cell Envelope Integrity and its Persistence in Chickens” (Scientific Reports, 2018).
Values after ≈ are worked out from the molar mass of the structure shown.

Legend:
[1] = test system: Salmonella Enteritidis; assay: Dose-response assay (MBC) on Salmonella serovars; assay type: cell-based; conditions: Salmonella enterica; serovar Enteritidis, M9 broth
[2] = test system: Salmonella Saint-Paul; assay: Dose-response assay (MBC) on Salmonella serovars; assay type: cell-based, Salmonella enterica; conditions: serovar Saint-Paul, M9 broth
[3] = test system: nine Salmonella serotypes; assay: Activity spectrum and dose-response across Salmonella serotypes; assay type: cell-based, Salmonella enterica; conditions: for Effect against the nine Salmonella serotypes: 200 µM, M9 broth; for MBC: Salmonella, read-out: MBCs among the nine serotypes
Method: The 128 SMs inhibiting S. Typhimurium growth (20% or higher) were tested for their antimicrobial effect on nine different Salmonella serovars frequently implicated in foodborne gastroenteritis outbreaks. […] Both screens were performed at 200 µM as described in the primary screening. Growth conditions for each strain are described in Supplementary Table S2.
S. Typhimurium was challenged with a determined concentration of SM as described in the primary screen.

[4] = test system: biofilm embedded S. Typhimurium; assay: MBEC high-throughput assay on biofilm; assay type: cell-based, Salmonella enterica subsp. enterica serovar Typhimurium; conditions: 18 hrs incubation; for MBC on biofilm embedded Salmonella: M9 medium; for Cidal concentration on biofilm relative to planktonic MBC: compared to planktonic dose-response in parallel
Method: The antimicrobial efficacy of the four SMs was tested on biofilm embedded S. Typhimurium as previously described. Briefly, 150 µl of an overnight suspension of S. Typhimurium normalized to 0.05 OD600 in LB medium was transferred into each well of a sterile, non-treated, flat bottom 96-well plate. The plate was covered using the lid containing the pegs (Innovotech), sealed with parafilm, and incubated for 36 hrs at 37 °C. […] The plate was incubated for 18 hrs at 37 °C, 110 rpm in the dark. After incubation, the pegs were transferred to a new 96-well plate containing 200 µl of sterile water and sonicated for 60 min at room temperature (Aquasonic model 50HT, VWR). Removal of the biofilm was confirmed by crystal violet staining. The supernatant was ten-fold serial diluted, plated on an agar plate, and incubated at 37 °C for 36 hrs. The lowest SM concentration giving a complete clearance was considered as MBEC. […] In parallel to this experiment, a dose-response assay with planktonic cells was conducted as described above.

[5] = test system: S. Typhimurium; assay type: cell-based, Salmonella enterica subsp. enterica serovar Typhimurium; conditions: lethal dose (2X MBC) on solid medium or repeated exposure to sub-lethal dose (0.75X MBC) in liquid medium
[6] = test system: S. Typhimurium membrane permeability; assay: Crystal violet uptake assay; assay type: cell-based, Salmonella enterica subsp. enterica serotype Typhimurium; conditions: 1 hr, lethal dose (5X MBC); for Reduction of crystal violet uptake: compared to 1% DMSO control
Method: Figure S2. Estimation of the membrane permeability of Salmonella enterica subsp. enterica serotype Typhimurium strain JSG626 after small molecule (SM) treatment. (A) Crystal […]
Treatments were normalized based on 10 μg/ml of crystal violet solution (no uptake […]
different than the 1% DMSO control (P<0.01); n= 9. (B) Loss of 260 nm absorbing materials from S. Typhimurium cell content. 260 nm absorbing materials were measured […]
standard deviation; *: the amount of 260 nm absorbing material in supernatant was […]
Both experiments were performed as previously described (1).
(also on this page, place not known: updtae (%) (ng/µl) Crystal violet 260 nm absorbing material) […]

[7] = test system: chicken red blood cells; assay: Hemolytic activity; assay type: cell-based; conditions: chicken RBCs, 200 µM, 1 hr
Method: (§1) Briefly, 200 µl of 10% sheep or chicken RBC suspension was incubated with 1 µl of SMs (200 µM) for 1 hr at 37 °C in a 96-well plate. After incubation, the plate was centrifuged at 3700 X g for 5 min at 4 °C and then placed on ice for five min. One hundred microliters of the supernatant were transferred into a fresh 96-well plate, and the OD was measured at 540 nm. One percent DMSO and 0.1% Triton-100X were used as negative and positive controls, respectively. Percentage hemolysis was calculated as: [(OD540 SM − OD540 DMSO)/(OD540 1X triton − OD540 PBS)] × 100.

[8] = test system: sheep red blood cells; assay: Hemolytic activity; assay type: cell-based; conditions: sheep RBCs, 200 µM, 1 hr
Method: as §1

[9] = test system: Galleria mellonella larvae; assay: Toxicity on G. mellonella larvae; assay type: in vivo; conditions: uninfected larvae, single treatment with 12.5 µg of SM, 72 hrs
Method: Galleria mellonella larvae (fifth instar stage) were incubated for 12 hrs at 37 °C in the dark. After incubation, only larvae with a white creamy phenotype and a body weight ranging between 225 to 275 mg were selected for the study. […] Larval survival was monitored on 12 hrs intervals. Not treated larvae, larvae treated with the buffer mix, and larvae treated with 12.5 µg of chloramphenicol were used as controls.

[10] = test system: S. Typhimurium in Caco-2 cells; assay: S. Typhimurium survival in infected cell lines; assay type: cell-based, Salmonella enterica subsp. enterica serotype Typhimurium; conditions: Salmonella enterica, internalized S. Typhimurium, 24 hrs; for IC50: estimated
Method: (§2) The ability of four SMs to clear S. Typhimurium was evaluated using three cell lines (Caco-2 cells, HD11, and THP-1 cells) as previously described. A multiplicity of infection (MOI) of 10 was used. Infected cells were treated with 1 µl of SMs (final concentration ranged between 100 µM and 6.25 µM) and incubated at 37 °C for 24 hrs in humidified, 5% CO2 incubator. Following incubation, cells were washed once with 1X PBS, lysed with 0.1% Triton-100X, serial ten-fold diluted in 1X PBS, and plated on agar plate. Plates were incubated at 37 °C for 24 hrs to determine the intracellular bacteria. Cells not infected and not treated, and cells infected and treated with 2% DMSO were used as controls.

[11] = test system: S. Typhimurium in HD11 cells; assay: S. Typhimurium survival in infected cell lines; assay type: cell-based, Salmonella enterica subsp. enterica serotype Typhimurium; conditions: Salmonella enterica, internalized S. Typhimurium, 24 hrs; for IC50: estimated
Method: as §2

[12] = test system: S. Typhimurium in THP-1 cells; assay: S. Typhimurium survival in infected cell lines; assay type: cell-based, Salmonella enterica subsp. enterica serotype Typhimurium; conditions: Salmonella enterica, internalized S. Typhimurium, 24 hrs; for IC50: estimated
Method: as §2

[13] = test system: Kan^R S. Typhimurium in layer chickens; assay type: in vivo, chicken; conditions: for Reduction of Salmonella in the ceca: compared to the DMSO group; for Ceca positive for S. Typhimurium after enrichment / Livers positive for S. Typhimurium after enrichment / Spleens positive for S. Typhimurium after enrichment: n = 10 chickens per group
[14] = compared to the DMSO-treated group

SMILES | MBC [1] | MBC [2] | Effect against the nine Salmonella serotypes [3] | MBC [3] | MBC on biofilm embedded Salmonella [4] | Cidal concentration on biofilm relative to planktonic MBC [4] | Resistance development of S. Typhimurium [5] | Reduction of crystal violet uptake [6] | Hemolytic activity [7] | Hemolytic activity [8] | Larva survival [9] | MBC [10] | IC50 [10] | MBC [11] | IC50 [11] | MBC [12] | IC50 [12] | Ceca positive for S. Typhimurium after enrichment [13] | Livers positive for S. Typhimurium after enrichment [13] | Spleens positive for S. Typhimurium after enrichment [13] | other results
CC1CCC(C(C)C)C(OC(=O)Cn2c[n+](CC(=O)OC3CC(C)CCC3C(C)C)c3ccccc32)C1 (stereo not drawn) [SM1] | 100 µM | 100 µM | cidal | 50 to 100 µM | 40 µM | 0.8 X MBC | no resistance was observed | 1.88 fold | > 50% | > 50% | 66% | 25 µM | 12.5 to 25 µM | 6.25 µM | < 3.21 µM | 100 µM | < 50 µM | 90% | 40% | 50% | Reduction of Salmonella in the ceca [13]: did not show any reduction
CCOc1cc(/C=N/N=C(N)N)ccc1OCc1ccc(Cl)cc1 [SM5] | 50 µM (≈ 17.3 µg/mL) | 50 µM (≈ 17.3 µg/mL) | – | 25 to 100 µM (≈ 8.67 to 34.7 µg/mL) | 25 µM (≈ 8.67 µg/mL) | – | no resistance was observed | – | lower than 1% | lower than 1% | 92% | 12.5 µM (≈ 4.34 µg/mL) | 6.25 to 12.5 µM | 25 µM (≈ 8.67 µg/mL) | < 12.5 µM | 50 µM (≈ 17.3 µg/mL) | < 25 µM | 70% | 40% | 30% | Increase in permeability (crystal violet uptake) ([6]; compared to 1% DMSO-treated cells): 2.32 fold; Reduction in Salmonella population inside the ceca ([13]; 200 µg of SM per day, oral, five days): approximately 2.8 log; Reduction of cecal colonization by Salmonella [13, 14]: 30%; Reduction of spleen colonization by Salmonella [13, 14]: 25%
CCCCCCCCCCCCCCCC[n+]1ccn(CC#N)c1 [SM3] | 25 µM | 50 µM | cidal | 25 to 50 µM | 15 µM | 0.6 X MBC | no resistance was observed | 4.46 fold | below 49% | below 18% | 85% | 50 µM | 12.5 to 25 µM | 50 µM | < 25 µM | 50 µM | 25 to 50 µM | 80% | 60% | 50% | Reduction of Salmonella in the ceca [13]: did not show any reduction
